# US10004701B2, “Methods and compositions for treating infection” (UNIVERSITY OF ROCHESTER, priority 2012, dated 2018)
# Where a name gives a salt, the structure may show the parent alone. Read-outs that look alike come from different tables or passages of the source.
# Legend:
# Test in all cases: AK assay 384-well format, Prestwick library screening
# K. pneumoniae = assay type: cell-based, Klebsiella pneumoniae; conditions: 50 μM final drug concentration; for fold induction at 50 µM: Klebsiella pneumoniae, 3 h
# [1] = tested on: A. baumannii strain 98-37-09; assay type: cell-based, Acinetobacter baumannii; conditions: 50 μM final drug concentration; for fold induction at 50 µM: Acinetobacter baumannii, 983709, 3 h
# E. cloacae = assay type: cell-based, Enterobacter cloacae; conditions: 50 μM final drug concentration; for fold induction at 50 µM: Enterobacter cloacae, 3 h
# E. faecium = assay type: cell-based, Enterococcus faecium; conditions: 50 μM final drug concentration; for fold induction at 50 µM: Enterococcus faecium, 3 h
# [2] = tested on: S. aureus strain USA300-0114; assay type: cell-based, Staphylococcus aureus; conditions: 50 μM final drug concentration; for fold induction at 50 µM: Staphylococcus aureus, USA300, 3 h
# E. coli = assay type: cell-based, Escherichia coli; conditions: 50 μM final drug concentration; for fold induction at 50 µM: Escherichia coli, 3 h
# P. aeruginosa = assay type: cell-based, Pseudomonas aeruginosa; conditions: 50 μM final drug concentration; for fold induction at 50 µM: Pseudomonas aeruginosa, 3 h
# [3] = 384-well format, cutoff for positive-scoring molecules 3-fold increase, read-out: AK-based Prestwick Library Screening Results, K. pneumoniae (increase in extracellular AK activity)
# [4] = 384-well format, cutoff for positive-scoring molecules 3-fold increase, read-out: AK-based Prestwick Library Screening Results, A. baumannii (increase in extracellular AK activity)
# [5] = 384-well format, cutoff for positive-scoring molecules 3-fold increase, read-out: AK-based Prestwick Library Screening Results, E. cloacae (increase in extracellular AK activity)
# [6] = 384-well format, cutoff for positive-scoring molecules 3-fold increase, read-out: AK-based Prestwick Library Screening Results, E. faecium (increase in extracellular AK activity)
# [7] = 384-well format, cutoff for positive-scoring molecules 3-fold increase, read-out: AK-based Prestwick Library Screening Results, S. aureus (increase in extracellular AK activity)
# [8] = 384-well format, cutoff for positive-scoring molecules 3-fold increase, read-out: AK-based Prestwick Library Screening Results, E. coli (increase in extracellular AK activity)
# [9] = 384-well format, cutoff for positive-scoring molecules 3-fold increase, read-out: AK-based Prestwick Library Screening Results, P. aeruginosa (increase in extracellular AK activity)
# [10] = planktonic K. pneumoniae, cutoff for positive-scoring molecules 3-fold increase, read-out: AK-based Prestwick Library Screening Results, K. pneumoniae (increase in extracellular AK activity)
# [11] = planktonic A. baumannii, cutoff for positive-scoring molecules 3-fold increase, read-out: AK-based Prestwick Library Screening Results, A. baumannii (increase in extracellular AK activity)
# [12] = planktonic E. cloacae, cutoff for positive-scoring molecules 3-fold increase, read-out: AK-based Prestwick Library Screening Results, E. cloacae (increase in extracellular AK activity)
# [13] = planktonic E. faecium, cutoff for positive-scoring molecules 3-fold increase, read-out: AK-based Prestwick Library Screening Results, E. faecium (increase in extracellular AK activity)
# [14] = planktonic S. aureus, cutoff for positive-scoring molecules 3-fold increase, read-out: AK-based Prestwick Library Screening Results, S. aureus (increase in extracellular AK activity)
# [15] = planktonic E. coli, cutoff for positive-scoring molecules 3-fold increase, read-out: AK-based Prestwick Library Screening Results, E. coli (increase in extracellular AK activity)
# [16] = planktonic P. aeruginosa, cutoff for positive-scoring molecules 3-fold increase, read-out: AK-based Prestwick Library Screening Results, P. aeruginosa (increase in extracellular AK activity)
# [17] = planktonic K. pneumoniae, 384-well, cutoff for positive-scoring molecules 3-fold increase, read-out: AK-based Prestwick Library Screening Results: K. pneumoniae (increase in extracellular AK activity)
# [18] = planktonic A. baumannii, 384-well, cutoff for positive-scoring molecules 3-fold increase, read-out: AK-based Prestwick Library Screening Results: A. baumannii (increase in extracellular AK activity)
# [19] = planktonic E. cloacae, 384-well, cutoff for positive-scoring molecules 3-fold increase, read-out: AK-based Prestwick Library Screening Results: E. cloacae (increase in extracellular AK activity)
# [20] = planktonic E. faecium, 384-well, cutoff for positive-scoring molecules 3-fold increase, read-out: AK-based Prestwick Library Screening Results: E. faecium (increase in extracellular AK activity)
# [21] = planktonic S. aureus, 384-well, cutoff for positive-scoring molecules 3-fold increase, read-out: AK-based Prestwick Library Screening Results: S. aureus (increase in extracellular AK activity)
# [22] = planktonic E. coli, 384-well, cutoff for positive-scoring molecules 3-fold increase, read-out: AK-based Prestwick Library Screening Results: E. coli (increase in extracellular AK activity)
# [23] = planktonic P. aeruginosa, 384-well, cutoff for positive-scoring molecules 3-fold increase, read-out: AK-based Prestwick Library Screening Results: P. aeruginosa (increase in extracellular AK activity)
# [24] = planktonic, cutoff for positive-scoring molecules 3-fold increase, read-out: AK-based Prestwick Library Screening Results, K. pneumoniae (fold increase in extracellular AK activity)
# [25] = planktonic, cutoff for positive-scoring molecules 3-fold increase, read-out: AK-based Prestwick Library Screening Results, A. baumannii (fold increase in extracellular AK activity)
# [26] = planktonic, cutoff for positive-scoring molecules 3-fold increase, read-out: AK-based Prestwick Library Screening Results, E. cloacae (fold increase in extracellular AK activity)
# [27] = planktonic, cutoff for positive-scoring molecules 3-fold increase, read-out: AK-based Prestwick Library Screening Results, E. faecium (fold increase in extracellular AK activity)
# [28] = planktonic, cutoff for positive-scoring molecules 3-fold increase, read-out: AK-based Prestwick Library Screening Results, S. aureus (fold increase in extracellular AK activity)
# [29] = planktonic, cutoff for positive-scoring molecules 3-fold increase, read-out: AK-based Prestwick Library Screening Results, E. coli (fold increase in extracellular AK activity)
# [30] = planktonic, cutoff for positive-scoring molecules 3-fold increase, read-out: AK-based Prestwick Library Screening Results, P. aeruginosa (fold increase in extracellular AK activity)
# [31] = 384-well format, cutoff for positive-scoring molecules 3-fold increase
compound,measurement,setting,value
CCCCOc1ccc(CC(=O)NO)cc1 [Bufexamac],fold induction at 50 µM,K. pneumoniae; [3],0.5
same,fold induction at 50 µM,[1]; [4],0.5
same,fold induction at 50 µM,E. cloacae; [5],0.6
same,fold induction at 50 µM,E. faecium; [6],0.9
same,fold induction at 50 µM,[2]; [7],0.4
same,fold induction at 50 µM,E. coli; [8],0.5
same,fold induction at 50 µM,P. aeruginosa; [9],0.5
COc1cc(OC)c(C(=O)CCCN2CCCC2)c(OC)c1 [Buflomedil hydrochloride],fold induction at 50 µM,K. pneumoniae; [10],0.6
same,fold induction at 50 µM,[1]; [11],0.7
same,fold induction at 50 µM,E. cloacae; [12],0.9
same,fold induction at 50 µM,E. faecium; [13],0.8
same,fold induction at 50 µM,[2]; [14],0.6
same,fold induction at 50 µM,E. coli; [15],0.8
same,fold induction at 50 µM,P. aeruginosa; [16],0.8
CCCCNc1cc(C(=O)O)cc(S(N)(=O)=O)c1Oc1ccccc1 [Bumetanide],fold induction at 50 µM,K. pneumoniae; [3],0.7
same,fold induction at 50 µM,[1]; [4],0.8
same,fold induction at 50 µM,E. cloacae; [5],1.3
same,fold induction at 50 µM,E. faecium; [6],0.9
same,fold induction at 50 µM,[2]; [7],0.7
same,fold induction at 50 µM,E. coli; [8],0.9
same,fold induction at 50 µM,P. aeruginosa; [9],0.8
CCCCN1CCCCC1C(=O)Nc1c(C)cccc1C (stereo not shown) [Bupivacaine hydrochloride],fold induction at 50 µM,K. pneumoniae; [17],1
same,fold induction at 50 µM,[1]; [18],1.4
same,fold induction at 50 µM,E. cloacae; [19],1.5
same,fold induction at 50 µM,E. faecium; [20],1
same,fold induction at 50 µM,[2]; [21],1.1
same,fold induction at 50 µM,E. coli; [22],1.3
same,fold induction at 50 µM,P. aeruginosa; [23],1.2
CC(NC(C)(C)C)C(=O)c1cccc(Cl)c1 (stereo not shown) [Bupropion hydrochloride],fold induction at 50 µM,K. pneumoniae; [3],0.5
same,fold induction at 50 µM,[1]; [4],0.5
same,fold induction at 50 µM,E. cloacae; [5],0.5
same,fold induction at 50 µM,E. faecium; [6],1
same,fold induction at 50 µM,[2]; [7],0.5
same,fold induction at 50 µM,E. coli; [8],0.5
same,fold induction at 50 µM,P. aeruginosa; [9],0.5
CCCCN(CCCC)CCCOC(=O)c1ccc(N)cc1 [Butacaine],fold induction at 50 µM,K. pneumoniae; [24],0.8
same,fold induction at 50 µM,[1]; [25],0.9
same,fold induction at 50 µM,E. cloacae; [26],1.4
same,fold induction at 50 µM,E. faecium; [27],0.9
same,fold induction at 50 µM,[2]; [28],0.8
same,fold induction at 50 µM,E. coli; [29],0.9
same,fold induction at 50 µM,P. aeruginosa; [30],1
CCCCOC(=O)c1ccc(N)cc1 [Butamben],fold induction at 50 µM,K. pneumoniae; [24],0.6
same,fold induction at 50 µM,[1]; [25],0.7
same,fold induction at 50 µM,E. cloacae; [26],1.7
same,fold induction at 50 µM,E. faecium; [27],0.8
same,fold induction at 50 µM,[2]; [28],1.1
same,fold induction at 50 µM,E. coli; [29],0.8
same,fold induction at 50 µM,P. aeruginosa; [30],0.9
Clc1ccc(CCC(Cn2ccnc2)Sc2c(Cl)cccc2Cl)cc1 (stereo not shown) [Butoconazole nitrate],fold induction at 50 µM,K. pneumoniae; [17],0.7
same,fold induction at 50 µM,[1]; [18],2
same,fold induction at 50 µM,E. cloacae; [19],0.5
same,fold induction at 50 µM,E. faecium; [20],3.3
same,fold induction at 50 µM,[2]; [21],0.6
same,fold induction at 50 µM,E. coli; [22],0.7
same,fold induction at 50 µM,P. aeruginosa; [23],0.5
CCCCOC(=O)c1ccc(O)cc1 [Butylparaben],fold induction at 50 µM,"K. pneumoniae; planktonic, […], read-out: AK-based Prestwick Library Screening Results, K. pneumoniae (fold increase in extracellular AK activity)",0.4
same,fold induction at 50 µM,"[1]; planktonic, […], read-out: AK-based Prestwick Library Screening Results, A. baumannii (fold increase in extracellular AK activity)",0.6
same,fold induction at 50 µM,"E. cloacae; planktonic, […], read-out: AK-based Prestwick Library Screening Results, E. cloacae (fold increase in extracellular AK activity)",1
same,fold induction at 50 µM,"E. faecium; planktonic, […], read-out: AK-based Prestwick Library Screening Results, E. faecium (fold increase in extracellular AK activity)",0.5
same,fold induction at 50 µM,"[2]; planktonic, […], read-out: AK-based Prestwick Library Screening Results, S. aureus (fold increase in extracellular AK activity)",0.7
same,fold induction at 50 µM,"E. coli; planktonic, […], read-out: AK-based Prestwick Library Screening Results, E. coli (fold increase in extracellular AK activity)",0.5
same,fold induction at 50 µM,"P. aeruginosa; planktonic, […], read-out: AK-based Prestwick Library Screening Results, P. aeruginosa (fold increase in extracellular AK activity)",0.6
O=C(O)/C=C/c1ccc(O)c(O)c1 [Caffeic acid],fold induction at 50 µM,K. pneumoniae; [24],0.8
same,fold induction at 50 µM,[1]; [25],0.8
same,fold induction at 50 µM,E. cloacae; [26],1
same,fold induction at 50 µM,E. faecium; [27],0.9
same,fold induction at 50 µM,[2]; [28],0.8
same,fold induction at 50 µM,E. coli; [29],1
same,fold induction at 50 µM,P. aeruginosa; [30],0.9
C=C1CC[C@H](O)C/C1=C/C=C1\CCC[C@]2(C)[C@@H]([C@H](C)/C=C/[C@H](C)C(C)C)CC[C@@H]12 [Calciferol],fold induction at 50 µM,K. pneumoniae; [10],0.7
same,fold induction at 50 µM,[1]; [11],0.7
same,fold induction at 50 µM,E. cloacae; [12],0.7
same,fold induction at 50 µM,E. faecium; [13],0.9
same,fold induction at 50 µM,[2]; [14],0.5
same,fold induction at 50 µM,E. coli; [15],0.8
same,fold induction at 50 µM,P. aeruginosa; [16],0.7
CN1CC[C@]23c4ccccc4N[C@H]1[C@]21CCN(C)[C@H]3Nc2ccccc21 [Calycanthine],"AK-based Prestwick Library Screening Results, K. pneumoniae (increase in extracellular AK activity)","K. pneumoniae; planktonic K. pneumoniae, […]",0.7
same,"AK-based Prestwick Library Screening Results, A. baumannii (increase in extracellular AK activity)","[1]; planktonic A. baumannii, […]",0.8
same,"AK-based Prestwick Library Screening Results, E. cloacae (increase in extracellular AK activity)","E. cloacae; planktonic E. cloacae, […]",1.2
same,"AK-based Prestwick Library Screening Results, E. faecium (increase in extracellular AK activity)","E. faecium; planktonic E. faecium, […]",0.8
same,"AK-based Prestwick Library Screening Results, S. aureus (increase in extracellular AK activity)","[2]; planktonic S. aureus, […]",0.6
same,"AK-based Prestwick Library Screening Results, E. coli (increase in extracellular AK activity)","E. coli; planktonic E. coli, […]",0.9
same,"AK-based Prestwick Library Screening Results, P. aeruginosa (increase in extracellular AK activity)","P. aeruginosa; planktonic P. aeruginosa, […]",0.8
"CC[C@@]1(O)C(=O)OCc2c1cc1n(c2=O)Cc2cc3ccccc3nc2-1 [Camptothecine (S,+)]","AK-based Prestwick Library Screening Results, K. pneumoniae (increase in extracellular AK activity)",K. pneumoniae; [31],0.8
same,"AK-based Prestwick Library Screening Results, A. baumannii (increase in extracellular AK activity)",[1]; [31],0.8
same,"AK-based Prestwick Library Screening Results, E. cloacae (increase in extracellular AK activity)",E. cloacae; [31],1.1
same,"AK-based Prestwick Library Screening Results, E. faecium (increase in extracellular AK activity)",E. faecium; [31],0.9
same,"AK-based Prestwick Library Screening Results, S. aureus (increase in extracellular AK activity)",[2]; [31],0.7
same,"AK-based Prestwick Library Screening Results, E. coli (increase in extracellular AK activity)",E. coli; [31],0.9
same,"AK-based Prestwick Library Screening Results, P. aeruginosa (increase in extracellular AK activity)",P. aeruginosa; [31],0.8
